Reference: USRE50917E1, “Formulations of (s)-3-(4-((4-(morpholinomethyl)benzyl)oxy)-1-oxoisoindolin-2-yl)piperidine-2,6-dione” (Celgene Corporation, priority 2013, dated 2026)
“Also recorded” adds a separate entry of the source.

Key:
[1] = Chemical stability of Compound A towards hydrolysis; format: physicochemical
TNF-α = settings: LPS-stimulated hPBMC and human whole blood; background statement; cited from earlier work
IL-1β = settings: LPS-stimulated hPBMC and human whole blood; background statement; cited from earlier work
IL-10 = settings: LPS-stimulated hPBMC and human whole blood; background statement; cited from earlier work
T cells = settings: background statement; cited from earlier work

Question: With `O=C1CC[C@H](N2Cc3c(OCc4ccc(CN5CCOCC5)cc4)cccc3C2=O)C(=O)N1` [Compound A, (S)-3-(4-((4-(morpholinomethyl)benzyl)oxy)-1-oxoisoindolin-2-yl)piperidine-2,6-dione] as the molecule, how does the “Susceptibility to hydrolysis, in words” value [1] read?
Answer: Its value is “prone to hydrolysis; also recorded: easily degraded by hydrolysis”.

Question: What about the “Degradation of TNF-α mRNA, in words” value (TNF-α) of the same molecule?
Answer: The value was “enhances”.

Question: And the “Inhibition of TNF-α, in words” value (TNF-α)?
Answer: Its value is “markedly inhibits”.

Question: And the “Inhibition of IL-1β, in words” value (IL-1β)?
Answer: The value was “potently inhibits”.

Question: What about the “Effect on IL-10, in words” value (IL-10) of the same molecule?
Answer: Its value is “stimulates”.

Question: And the “Co-stimulation of T cells, in words” value (T cells)?
Answer: The value was “potent co-stimulator”.
